This is an account of results in patent publication US10730874B2 (Shire Human Genetic Therapies, Inc., priority 2018, dated 2020).

A value given as a limit tells only on which side of the number the result lay.

Chain of human activated kallikrein enzyme (plasma kallikrein) (P03952 391-638): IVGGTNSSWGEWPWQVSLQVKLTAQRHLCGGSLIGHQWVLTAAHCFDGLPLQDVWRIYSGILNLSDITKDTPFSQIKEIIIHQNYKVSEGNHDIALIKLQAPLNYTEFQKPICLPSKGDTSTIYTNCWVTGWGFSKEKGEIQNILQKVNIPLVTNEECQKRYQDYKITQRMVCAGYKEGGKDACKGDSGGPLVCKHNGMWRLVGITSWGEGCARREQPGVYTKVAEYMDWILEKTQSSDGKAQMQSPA
Chain of human activated kallikrein enzyme (plasma kallikrein) (P03952 20-390 partner): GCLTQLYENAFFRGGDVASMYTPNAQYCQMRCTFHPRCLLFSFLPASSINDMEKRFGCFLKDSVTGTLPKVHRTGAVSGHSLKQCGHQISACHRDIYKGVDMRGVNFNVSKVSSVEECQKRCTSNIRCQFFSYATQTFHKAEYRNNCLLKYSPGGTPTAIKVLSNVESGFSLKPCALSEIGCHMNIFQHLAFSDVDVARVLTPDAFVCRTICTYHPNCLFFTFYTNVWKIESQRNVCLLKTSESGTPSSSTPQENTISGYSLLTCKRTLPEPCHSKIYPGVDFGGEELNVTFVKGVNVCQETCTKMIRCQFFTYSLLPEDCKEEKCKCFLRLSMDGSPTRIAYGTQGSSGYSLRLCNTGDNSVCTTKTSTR

One assay concerns the target human activated kallikrein enzyme (plasma kallikrein) (Homo sapiens (Human), UniProt P03952). The assay can be described thus: Inhibition of human activated plasma kallikrein, fluorogenic peptide substrate assay, 500 pM enzyme format.
Conditions: not given
It is filed as biochemical. Put shortly: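 Buffer 20 mM Tris pH 7.5, EDTA, NaCl, PEG-400, Triton X-100; 300 uM Pro-Phe-Arg-AMC; enzyme–inhibitor preincubation 30 min RT. Format one: 500 pM kallikrein, 10 min RT reaction; format two: 5 pM kallikrein, 18 h RT reaction. Fluorescence read at 460 nm (380 nm excitation).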
`O=C(NCc1ncn2ccc(Br)cc12)c1cn(Cc2cn3cc(C4CC4)ccc3n2)c2cccnc12` [Example I-30, N-((7-bromoimidazo[1,5-a]pyridin-1-yl)methyl)-1-((6-cyclopropylimidazo[1,2-a]pyridin-2-yl)methyl)-1H-pyrrolo[3,2-b]pyridine-3-carboxamide]: the EC50 (usually the concentration at which the effect is half-maximal) lay in the range of 1 to 10 nM.

The assay is the same for the next values; noted with them: 500 pM activated kallikrein enzyme, 300 uM Pro-Phe-Arg-7-amido-4-methylcoumarin substrate, 30 min preincubation, 10 min at RT; read-out: Primary Dose Response Assay: Average EC50.
Turning to `O=C(NCc1ncn2ccc(Cl)c(F)c12)c1cn(Cc2[nH]c3cc(C4CC4)ccc3c2C(=O)O)nn1` [Example I-274, 2-((4-(((7-chloro-8-fluoroimidazo[1,5-a]pyridin-1-yl)methyl)carbamoyl)-1H-1,2,3-triazol-1-yl)methyl)-6-cyclopropyl-1H-indole-3-carboxylic acid], the 50% effective concentration (EC50) fell in the range of 100 to 2000 nM. Same read-out and setting: the figure for `Cc1ccc2nc(Cn3cc(C(=O)NCc4ncn5ccc(Cl)c(Cl)c45)cn3)cn2c1` [Example I-33, N-((7,8-dichloroimidazo[1,5-a]pyridin-1-yl)methyl)-1-((6-methylimidazo[1,2-a]pyridin-2-yl)methyl)-1H-pyrazole-4-carboxamide] is 10 to 100 nM; for `O=C(NCc1ncn2ccc(Cl)cc12)c1cnn(Cc2cn3c(C4CC4)cccc3n2)c1` [Example I-22, N-((7-chloroimidazo[1,5-a]pyridin-1-yl)methyl)-1-((5-cyclopropylimidazo[1,2-a]pyridin-2-yl)methyl)-1H-pyrazole-4-carboxamide] it is 100 to 2000 nM; for `O=C(NCc1ncn2ccc(Cl)cc12)c1ncn(Cc2cn3cc(C4CC4)ccc3n2)n1` [Example I-152, N-((7-chloroimidazo[1,5-a]pyridin-1-yl)methyl)-1-((6-cyclopropylimidazo[1,2-a]pyridin-2-yl)methyl)-1H-1,2,4-triazole-3-carboxamide] it is less than 1 nM. Take `O=C(NCc1ncn2ccc(Cl)cc12)c1cnn(Cc2cn3cc(C4CC4)ccc3n2)n1` [Example I-121, N-((7-chloroimidazo[1,5-a]pyridin-1-yl)methyl)-2-((6-cyclopropylimidazo[1,2-a]pyridin-2-yl)methyl)-2H-1,2,3-triazole-4-carboxamide]: the 50% effective concentration (EC50) was less than 1 nM. With `CCOC(=O)C(C)(C)C(O)c1cc(C2CC2)cn2cc(Cn3cc(C(=O)NCc4ncn5ccc(Cl)c(F)c45)nn3)nc12` (stereo not drawn) [Example I-241a, ethyl 3-(2-((4-(((7-chloro-8-fluoroimidazo[1,5-a]pyridin-1-yl)methyl)carbamoyl)-1H-1,2,3-triazol-1-yl)methyl)-6-cyclopropylimidazo[1,2-a]pyridin-8-yl)-3-hydroxy-2,2-dimethylpropanoate], the EC50 was less than 1 nM.

With `CC(C)(O)c1cc(C2CC2)cn2cc(Cn3cc(C(=O)NCc4ncn5ccc(Cl)cc45)cn3)nc12` [Example I-104b, N-((7-chloroimidazo[1,5-a]pyridin-1-yl)methyl)-1-((6-cyclopropyl-8-(2-hydroxypropan-2-yl)imidazo[1,2-a]pyridin-2-yl)methyl)-1H-pyrazole-4-carboxamide], the EC50 is less than 1 nM. For `COc1cccc2nc(Cn3cc(C(=O)NCc4ncn5ccc(Cl)cc45)cn3)cn12` [Example I-63, N-((7-chloroimidazo[1,5-a]pyridin-1-yl)methyl)-1-((5-methoxyimidazo[1,2-a]pyridin-2-yl)methyl)-1H-pyrazole-4-carboxamide], the 50% effective concentration (EC50) is 10 to 100 nM. As for `C=Cc1ccn2cnc(CNC(=O)c3cnn(Cc4cn5cc(C6CC6)ccc5n4)c3)c2c1` [Example I-118, 1-((6-cyclopropylimidazo[1,2-a]pyridin-2-yl)methyl)-N-((7-vinylimidazo[1,5-a]pyridin-1-yl)methyl)-1H-pyrazole-4-carboxamide], the EC50 was in the range of 1 to 10 nM. For `CCOC(=O)Cc1cc(C2CC2)cn2cc(Cn3cc(C(=O)NCc4ncn5ccc(Cl)c(F)c45)nn3)nc12` [Example I-157a, ethyl 2-(2-((4-(((7-chloro-8-fluoroimidazo[1,5-a]pyridin-1-yl)methyl)carbamoyl)-1H-1,2,3-triazol-1-yl)methyl)-6-cyclopropylimidazo[1,2-a]pyridin-8-yl)acetate], the EC50 was less than 1 nM. As for `O=C(NCc1ncn2ccc(Cl)c(F)c12)c1cn(Cc2nc3ccccn3n2)nn1` [Example I-287, 1-([1,2,4]triazolo[1,5-a]pyridin-2-ylmethyl)-N-((7-chloro-8-fluoroimidazo[1,5-a]pyridin-1-yl)methyl)-1H-1,2,3-triazole-4-carboxamide], the concentration giving a half-maximal response (EC50) was in the range of 100 to 2000 nM. On to `N#Cc1cc(C2CC2)cn2cc(Cn3cc(C(=O)NCc4ncn5ccc(Cl)cc45)cn3)nc12` [Example I-92, N-((7-chloroimidazo[1,5-a]pyridin-1-yl)methyl)-1-((8-cyano-6-cyclopropylimidazo[1,2-a]pyridin-2-yl)methyl)-1H-pyrazole-4-carboxamide], for which the EC50 is less than 1 nM. The same measure, in the same setting: the figure for `O=C(NCc1ncn2ccc(Cl)cc12)c1cnn(Cc2cn3cc(Br)c(Cl)cc3n2)c1` [Example I-36, 1-((6-bromo-7-chloroimidazo[1,2-a]pyridin-2-yl)methyl)-N-((7-chloroimidazo[1,5-a]pyridin-1-yl)methyl)-1H-pyrazole-4-carboxamide] is 10 to 100 nM; for `O=Cc1cc(C2CC2)cn2cc(Cn3cc(C(=O)NCc4ncn5ccc(Cl)c(F)c45)nn3)nc12` [Example I-182, N-((7-chloro-8-fluoroimidazo[1,5-a]pyridin-1-yl)methyl)-1-((6-cyclopropyl-8-formylimidazo[1,2-a]pyridin-2-yl)methyl)-1H-1,2,3-triazole-4-carboxamide] it is less than 1 nM. On the same count and under the same terms, the figure for `NCc1cc(C2CC2)cn2cc(Cn3cc(C(=O)NCc4ncn5ccc(Cl)c(F)c45)nn3)nc12` [Example I-298, 1-((8-(aminomethyl)-6-cyclopropylimidazo[1,2-a]pyridin-2-yl)methyl)-N-((7-chloro-8-fluoroimidazo[1,5-a]pyridin-1-yl)methyl)-1H-1,2,3-triazole-4-carboxamide] is less than 1 nM; for `CCOc1c(Cl)ccn2cnc(CNC(=O)c3cn(Cc4cn5cc(C6CC6)cc(CC6(C(=O)O)CCCC6)c5n4)nn3)c12` [Example I-221c, 1-((2-((4-(((7-chloro-8-ethoxyimidazo[1,5-a]pyridin-1-yl)methyl)carbamoyl)-1H-1,2,3-triazol-1-yl)methyl)-6-cyclopropylimidazo[1,2-a]pyridin-8-yl)methyl)cyclopentane-1-carboxylic acid] it is 10 to 100 nM; for `Cc1c(Cl)ccc2nc(Cn3cc(C(=O)NCc4ncn5ccc(Cl)cc45)cn3)cn12` [Example I-7, 1-((6-chloro-5-methylimidazo[1,2-a]pyridin-2-yl)methyl)-N-((7-chloroimidazo[1,5-a]pyridin-1-yl)methyl)-1H-pyrazole-4-carboxamide] it is 1 to 10 nM. Same read-out and setting: the same measure for `O=C(NCc1ncn2ccc(Cl)cc12)c1cnn(Cc2cn3cc(C4CC4)cc(C4(O)COC4)c3n2)c1` [Example I-122, N-((7-chloroimidazo[1,5-a]pyridin-1-yl)methyl)-1-((6-cyclopropyl-8-(3-hydroxyoxetan-3-yl)imidazo[1,2-a]pyridin-2-yl)methyl)-1H-pyrazole-4-carboxamide]: less than 1 nM. As for `O=C(NCc1ncn2ccc(Cl)cc12)c1cnn(Cc2ccc3ncc(Cl)cc3c2)c1` [Example I-1, N-((7-chloroimidazo[1,5-a]pyridin-1-yl)methyl)-1-((3-chloroquinolin-6-yl)methyl)-1H-pyrazole-4-carboxamide], the EC50 lay in the range of 10 to 100 nM. In the case of `O=C(NCc1ncn2ccc(Cl)cc12)c1cnn(Cc2cc3ncc(C4CC4)cc3[nH]2)c1` [Example I-84, N-((7-chloroimidazo[1,5-a]pyridin-1-yl)methyl)-1-((6-cyclopropyl-1H-pyrrolo[3,2-b]pyridin-2-yl)methyl)-1H-pyrazole-4-carboxamide], the concentration for a half-maximal effect (EC50) was in the range of 10 to 100 nM. For the molecule `O=C(NCc1ncn2ccc(Br)cc12)c1cnn(Cc2cn3cc(Br)c(Cl)cc3n2)c1` [Example I-37, 1-((6-bromo-7-chloroimidazo[1,2-a]pyridin-2-yl)methyl)-N-((7-bromoimidazo[1,5-a]pyridin-1-yl)methyl)-1H-pyrazole-4-carboxamide], the EC50 is 10 to 100 nM. Still for that read-out and setting: the same measure for `O=C(NCc1ncn2ccc(Br)c(F)c12)c1nnc(Cc2cn3cc(C4CC4)ccc3n2)o1` [Example I-136, N-((7-bromo-8-fluoroimidazo[1,5-a]pyridin-1-yl)methyl)-5-((6-cyclopropylimidazo[1,2-a]pyridin-2-yl)methyl)-1,3,4-oxadiazole-2-carboxamide]: less than 1 nM.

On to `O=C(NCc1ncn2ccc(Cl)cc12)c1cnc(Cc2cn3cc(C4CC4)ccc3n2)s1` [Example I-38, N-((7-chloroimidazo[1,5-a]pyridin-1-yl)methyl)-2-((6-cyclopropylimidazo[1,2-a]pyridin-2-yl)methyl)thiazole-5-carboxamide], for which the EC50 was in the range of 1 to 10 nM. On the same count and under the same terms, the same measure for `CCOC(=O)C=Cc1cc(C2CC2)cn2cc(Cn3cc(C(=O)NCc4ncn5ccc(Cl)cc45)cn3)nc12` [Example I-100a, ethyl 3-(2-((4-(((7-chloroimidazo[1,5-a]pyridin-1-yl)methyl)carbamoyl)-1H-pyrazol-1-yl)methyl)-6-cyclopropylimidazo[1,2-a]pyridin-8-yl)acrylate]: less than 1 nM; for `CCOC(=O)CC(c1cn2cc(C3CC3)ccc2n1)n1cc(C(=O)NCc2ncn3ccc(Cl)c(F)c23)nn1` (stereo not drawn) [Example I-227a, ethyl 3-(4-(((7-chloro-8-fluoroimidazo[1,5-a]pyridin-1-yl)methyl)carbamoyl)-1H-1,2,3-triazol-1-yl)-3-(6-cyclopropylimidazo[1,2-a]pyridin-2-yl)propanoate]: 10 to 100 nM.

Staying with this assay, now noted: comparative compounds (Table II); assay format with 500 pM (500 μM in the source) activated kallikrein; read-out: Primary Dose Response Assay: Average EC50.
Take `O=C(NCc1ncn2ccc(Cl)cc12)c1ccnc(Cc2ccc3ncc(Cl)cc3c2)c1` [drawing 399, reference compound]: the EC50 was in the range of 10 to 100 nM.
